In ChEMBL document CHEMBL3124815, “Discovery of a selective kinase inhibitor (TAK-632) targeting pan-RAF inhibition: design, synthesis, and biological evaluation of C-7-substituted 1,3-benzothiazole derivatives” (J Med Chem, 2013):

Experiments:
[1] = Total clearance in dog at 1 mg/kg, iv; assay type: ADME, organism-based, Canis lupus familiaris; design: dose 1 mg/kg, route intravenous; conditions: in vivo
[2] = Inhibition of NRASQ61k/BRAFG469V-mutant in human HMVII cells assessed as phosphorylation of MEK after 2 hrs by Western blotting analysis; assay type: cell-based
[3] = Antiproliferative activity against human HMVII cells assessed as growth inhibition after 72 hrs by chemi-luminescence cell viability assay; assay type: functional; conditions: HMV-2, 72 h
[4] = target: Mitogen-activated protein kinase 14 (Homo sapiens, UniProt Q16539); experiment: Inhibition of C-terminal FLAG-tagged p38 alpha (unknown origin) expressed in baculovirus system using MBP as substrate after 60 mins
[5] = target: Casein kinase I isoform delta (Homo sapiens, UniProt P48730); experiment: Inhibition of CK1delta (unknown origin) using CK1tide as substrate after 20 mins
[6] = Volume of distribution at steady state in rat at 1 mg/kg, iv; assay type: ADME, organism-based; design: dose 1 mg/kg, route intravenous; conditions: in vivo, read-out: Vdss
[7] = Mean residence time in rat at 1 mg/kg, iv; assay type: ADME, organism-based; design: dose 1 mg/kg, route intravenous; conditions: in vivo
[8] = AUC (0 to 24 hrs) in dog at 10 mg/kg, po; assay type: ADME, organism-based, Canis lupus familiaris; design: time < 24 hr, dose 10 mg/kg, route oral; conditions: plasma
[9] = target: T1, RAF proto-oncogene serine/threonine-protein kinase (Homo sapiens, UniProt P04049); experiment: Competitive inhibition of CRAF (unknown origin) in presence of 0.5 uM ATP by ELISA
Rattus norvegicus [10] = experiment: Toxicity in F344 nude rat xenografted with human A375 cells expressing BRAF V600E mutant assessed as body weight change at 9.7 mg/kg, po bid for 14 days relative to control; assay type: organism-based, A-375; design: dose 9.7 mg/kg, route oral; conditions: in vivo, 336 h
[11] = target: Protein kinase C theta type (Homo sapiens, UniProt Q04759); experiment: Inhibition of C-terminal FLAG-tagged PKC-theta (unknown origin) expressed in […] using MBP as substrate after 60 mins
Rattus norvegicus [12] = experiment: Toxicity in F344 nude rat xenografted with human A375 cells expressing BRAF V600E mutant assessed as body weight change at 1.9 mg/kg, po bid for 14 days relative to control; assay type: organism-based, A-375; design: dose 1.9 mg/kg, route oral; conditions: in vivo, 336 h
Rattus norvegicus [13] = experiment: Toxicity in F344 nude rat xenografted with human A375 cells expressing BRAF V600E mutant assessed as body weight change at 3.9 mg/kg, po bid for 14 days relative to control; assay type: organism-based, A-375; design: dose 3.9 mg/kg, route oral; conditions: in vivo, 336 h
[14] = target: T1, RAF proto-oncogene serine/threonine-protein kinase; experiment: Inhibition of N-terminal FLAG-tagged wild type C-RAF (unknown origin) expressed in baculovirus system using GST-MEK1(K96R) as substrate after 20 mins
Insulin receptor = Insulin receptor (Homo sapiens, UniProt P06213); experiment: Inhibition of Insulin receptor (unknown origin) using biotinylated poly-Glu-Tyr (4:1) as substrate preincubated for 5 mins measured after 12 hrs
[15] = target: Platelet-derived growth factor receptor beta (Homo sapiens, UniProt P09619); experiment: Inhibition of PDGFR beta (unknown origin) using biotinylated poly-Glu-Tyr (4:1) as substrate preincubated for 5 mins measured after 12 hrs
[16] = AUC (0 to 24 hrs) in rat at 25 mg/kg, po; assay type: ADME, organism-based; design: time < 24 hr, dose 25 mg/kg, route oral; conditions: plasma
Rattus norvegicus [17] = experiment: Toxicity in F344 nude rat xenografted with human HMVII cells expressing NRAS Q61K/BRAF G469V mutant assessed as body weight change at 9.7 mg/kg, po bid for 14 days; assay type: organism-based; design: dose 9.7 mg/kg, route oral; conditions: in vivo, 336 h
[18] = target: Mitogen-activated protein kinase 3 (Homo sapiens, UniProt P27361); experiment: Inhibition of C-terminal FLAG-tagged ERK1 expressed in baculovirus system (unknown origin) using MBP as substrate after 60 mins
[19] = target: Cyclin-dependent kinase 1/cyclin B1 (Homo sapiens, UniProt P06493); experiment: Inhibition of CDK1/CycB (unknown origin) using histone H1 as substrate after 20 mins; assay type: protein-complex assay
[20] = AUC (0 to 24 hrs) in dog at 1 mg/kg, iv; assay type: ADME, organism-based, Canis lupus familiaris; design: time < 24 hr, dose 1 mg/kg, route intravenous; conditions: plasma
[21] = target: T2, Serine/threonine-protein kinase B-raf (Homo sapiens, UniProt P15056, V600E); experiment: Inhibition of BRAF V600E mutant (unknown origin) compound preincubated for 1 hr in presence of 1000 uM ATP
[22] = target: Glycogen synthase kinase-3 beta (Homo sapiens, UniProt P49841); experiment: Inhibition of C-terminal FLAG-tagged GSK3beta (unknown origin) expressed in baculovirus system after 30 mins
[23] = Mean residence time in dog at 1 mg/kg, iv; assay type: ADME, organism-based, Canis lupus familiaris; design: dose 1 mg/kg, route intravenous; conditions: in vivo
[24] = target: Mitogen-activated protein kinase kinase kinase 1 (Homo sapiens, UniProt Q13233); experiment: Inhibition of C-terminal FLAG-tagged MEKK1 (unknown origin) expressed in baculovirus system using MBP as substrate after 60 mins
[25] = target: T3, Serine/threonine-protein kinase B-raf (Homo sapiens, UniProt P15056); experiment: Binding affinity to BRAF (unknown origin) assessed as equilibrium dissociation constant by surface plasmon resonance analysis
[26] = target: Mast/stem cell growth factor receptor Kit (Homo sapiens, UniProt P10721); experiment: Inhibition of c-Kit receptor (unknown origin) using biotinylated poly-Glu-Tyr (4:1) as substrate preincubated for 5 mins measured after 12 hrs
Homo sapiens = organism: Homo sapiens; experiment: Selectivity factor, ratio of IC50 for VEGFR2 (unknown origin) to IC50 for N-terminal FLAG-tagged recombinant BRAF-V600E (unknown origin) expressed in baculovirus system
Aurora kinase B = Aurora kinase B (Homo sapiens, UniProt Q96GD4); experiment: Inhibition of N-terminal His-6-tagged Aurora kinase B (unknown origin) expressed in baculovirus system after 60 mins
[27] = target: T1, RAF proto-oncogene serine/threonine-protein kinase; experiment: Binding affinity to CRAF (unknown origin) assessed as equilibrium dissociation constant by surface plasmon resonance analysis
Mus musculus = experiment: AUC (0 to 8 hrs) in mouse at 10 mg/kg, po; assay type: ADME, organism-based, Blood; design: time < 8 hr, dose 10 mg/kg, route oral; conditions: in vivo
[28] = target: Fibroblast growth factor receptor 3 (Homo sapiens, UniProt P22607); experiment: Inhibition of FGFR3 (unknown origin) using biotinylated poly-Glu-Tyr (4:1) as substrate preincubated for 5 mins measured after 12 hrs
[29] = target: Serine/threonine-protein kinase Chk1 (Homo sapiens, UniProt O14757); experiment: Inhibition of CHK1 (unknown origin) using alpha-casein as substrate after 20 mins
[30] = Mean residence time in rat at 25 mg/kg, po; assay type: ADME, organism-based; design: dose 25 mg/kg, route oral; conditions: in vivo
[31] = target: T1, RAF proto-oncogene serine/threonine-protein kinase
Description: Binding affinity to CRAF (unknown origin) assessed as dissociation half life by surface plasmon resonance analysis

[32] = target: T2, Serine/threonine-protein kinase B-raf
Target sequence in this assay (P15056 whole entry V600E): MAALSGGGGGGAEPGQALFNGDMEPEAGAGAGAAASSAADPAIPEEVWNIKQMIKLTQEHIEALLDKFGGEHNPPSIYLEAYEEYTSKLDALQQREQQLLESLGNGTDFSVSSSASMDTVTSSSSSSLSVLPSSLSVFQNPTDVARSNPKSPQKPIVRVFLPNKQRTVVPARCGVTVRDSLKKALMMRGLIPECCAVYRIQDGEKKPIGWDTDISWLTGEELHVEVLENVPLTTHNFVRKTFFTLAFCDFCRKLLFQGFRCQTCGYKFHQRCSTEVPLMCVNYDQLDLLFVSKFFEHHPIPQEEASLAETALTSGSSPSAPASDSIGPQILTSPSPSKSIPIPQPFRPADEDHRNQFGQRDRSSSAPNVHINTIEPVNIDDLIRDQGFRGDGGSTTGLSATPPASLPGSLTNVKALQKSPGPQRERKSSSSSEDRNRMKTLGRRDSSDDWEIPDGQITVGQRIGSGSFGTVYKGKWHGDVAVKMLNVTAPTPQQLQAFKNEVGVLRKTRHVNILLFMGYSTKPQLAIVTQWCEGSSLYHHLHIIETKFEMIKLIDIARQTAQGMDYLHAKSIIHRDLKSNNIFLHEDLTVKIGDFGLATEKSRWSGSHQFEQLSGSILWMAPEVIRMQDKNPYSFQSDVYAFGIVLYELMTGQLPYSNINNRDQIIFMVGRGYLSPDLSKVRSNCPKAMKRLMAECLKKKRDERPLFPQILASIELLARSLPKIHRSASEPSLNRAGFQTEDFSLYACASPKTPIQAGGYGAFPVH

[33] = Solubility of the compound in phosphate buffer at pH 6.8; assay type: physicochemical
[34] = Volume of distribution at steady state in dog at 1 mg/kg, iv; assay type: ADME, organism-based, Canis lupus familiaris; design: dose 1 mg/kg, route intravenous; conditions: in vivo, read-out: Vdss
[35] = target: T3, Serine/threonine-protein kinase B-raf; experiment: Inhibition of N-terminal FLAG-tagged wild type BRAF (unknown origin) expressed in baculovirus system using GST-MEK1(K96R) as substrate after 20 mins

T1 sequence (P04049 whole entry): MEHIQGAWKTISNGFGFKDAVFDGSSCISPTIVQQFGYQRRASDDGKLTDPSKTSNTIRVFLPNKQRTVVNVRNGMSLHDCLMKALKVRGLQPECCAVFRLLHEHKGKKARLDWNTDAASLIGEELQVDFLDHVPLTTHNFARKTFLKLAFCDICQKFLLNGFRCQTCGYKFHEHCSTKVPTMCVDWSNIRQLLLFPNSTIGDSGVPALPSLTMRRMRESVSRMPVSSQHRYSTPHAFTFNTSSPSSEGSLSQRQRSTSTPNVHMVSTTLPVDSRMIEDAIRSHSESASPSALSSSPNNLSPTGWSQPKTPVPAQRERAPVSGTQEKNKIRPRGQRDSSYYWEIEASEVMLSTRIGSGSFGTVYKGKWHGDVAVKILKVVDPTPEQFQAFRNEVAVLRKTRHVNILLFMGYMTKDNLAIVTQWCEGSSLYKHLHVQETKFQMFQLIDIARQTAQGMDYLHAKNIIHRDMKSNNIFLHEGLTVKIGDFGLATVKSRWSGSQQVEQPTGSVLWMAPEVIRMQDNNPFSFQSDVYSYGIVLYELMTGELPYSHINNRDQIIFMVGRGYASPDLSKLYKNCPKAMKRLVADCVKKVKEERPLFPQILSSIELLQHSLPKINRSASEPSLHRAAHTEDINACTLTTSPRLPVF
T3 sequence (P15056 whole entry): as the sequence (P15056 whole entry V600E) above, with E600V counted along it
Glycogen synthase kinase-3 beta, sequence (P49841 whole entry): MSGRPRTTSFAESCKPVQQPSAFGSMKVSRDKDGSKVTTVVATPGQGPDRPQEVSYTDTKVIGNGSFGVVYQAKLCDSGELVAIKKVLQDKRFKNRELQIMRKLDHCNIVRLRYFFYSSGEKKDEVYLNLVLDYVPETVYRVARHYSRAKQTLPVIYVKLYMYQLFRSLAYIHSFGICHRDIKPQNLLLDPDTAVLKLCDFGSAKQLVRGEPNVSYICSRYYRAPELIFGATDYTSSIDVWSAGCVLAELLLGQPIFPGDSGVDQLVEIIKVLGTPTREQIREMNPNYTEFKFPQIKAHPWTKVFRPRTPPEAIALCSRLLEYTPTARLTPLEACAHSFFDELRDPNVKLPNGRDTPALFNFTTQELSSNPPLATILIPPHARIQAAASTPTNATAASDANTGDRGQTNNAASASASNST
Serine/threonine-protein kinase Chk1, sequence (O14757 whole entry): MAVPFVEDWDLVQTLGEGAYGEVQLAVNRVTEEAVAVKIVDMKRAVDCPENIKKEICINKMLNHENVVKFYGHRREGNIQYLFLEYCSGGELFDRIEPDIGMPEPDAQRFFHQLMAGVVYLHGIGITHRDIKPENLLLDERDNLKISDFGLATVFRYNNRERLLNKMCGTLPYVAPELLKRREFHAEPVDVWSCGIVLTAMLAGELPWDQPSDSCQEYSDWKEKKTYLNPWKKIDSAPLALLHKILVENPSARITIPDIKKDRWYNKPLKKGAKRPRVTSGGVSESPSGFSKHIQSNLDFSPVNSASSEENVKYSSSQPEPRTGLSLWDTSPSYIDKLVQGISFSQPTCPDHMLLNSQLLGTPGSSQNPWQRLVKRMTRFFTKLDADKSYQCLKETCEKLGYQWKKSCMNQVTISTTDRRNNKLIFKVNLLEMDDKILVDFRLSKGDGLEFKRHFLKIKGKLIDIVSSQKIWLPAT
Cyclin-dependent kinase 1/cyclin B1, sequence (P06493 whole entry): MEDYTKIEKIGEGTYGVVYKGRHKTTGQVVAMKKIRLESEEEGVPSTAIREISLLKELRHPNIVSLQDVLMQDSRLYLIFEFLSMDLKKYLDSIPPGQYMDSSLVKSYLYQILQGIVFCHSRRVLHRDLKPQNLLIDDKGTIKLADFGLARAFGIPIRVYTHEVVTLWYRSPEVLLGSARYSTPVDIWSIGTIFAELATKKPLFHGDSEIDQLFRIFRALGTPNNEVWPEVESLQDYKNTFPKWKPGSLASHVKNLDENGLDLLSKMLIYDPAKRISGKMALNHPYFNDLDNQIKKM
Cyclin-dependent kinase 1/cyclin B1, sequence (P14635 whole entry, further chain): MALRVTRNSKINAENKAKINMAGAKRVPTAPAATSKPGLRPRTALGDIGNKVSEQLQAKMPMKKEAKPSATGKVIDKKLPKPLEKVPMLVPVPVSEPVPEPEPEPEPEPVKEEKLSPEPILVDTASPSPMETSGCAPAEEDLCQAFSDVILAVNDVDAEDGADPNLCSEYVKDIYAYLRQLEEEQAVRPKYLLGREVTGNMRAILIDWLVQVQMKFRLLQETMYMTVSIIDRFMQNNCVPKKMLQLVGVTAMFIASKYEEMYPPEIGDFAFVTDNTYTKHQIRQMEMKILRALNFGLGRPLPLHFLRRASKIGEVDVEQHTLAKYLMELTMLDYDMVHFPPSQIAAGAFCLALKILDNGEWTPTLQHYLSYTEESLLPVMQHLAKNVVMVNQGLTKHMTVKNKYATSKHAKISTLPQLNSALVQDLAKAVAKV
Aurora kinase B, sequence (Q96GD4 whole entry): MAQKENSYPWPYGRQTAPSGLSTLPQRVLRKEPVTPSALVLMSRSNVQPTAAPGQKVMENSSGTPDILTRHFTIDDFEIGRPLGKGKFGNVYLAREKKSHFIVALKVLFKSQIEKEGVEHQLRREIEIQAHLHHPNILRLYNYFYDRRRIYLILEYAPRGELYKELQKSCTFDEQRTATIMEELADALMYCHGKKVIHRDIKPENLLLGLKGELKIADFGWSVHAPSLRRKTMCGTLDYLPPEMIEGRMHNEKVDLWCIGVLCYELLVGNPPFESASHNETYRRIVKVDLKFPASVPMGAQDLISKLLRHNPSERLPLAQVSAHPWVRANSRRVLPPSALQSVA
Mast/stem cell growth factor receptor Kit, sequence (P10721 whole entry): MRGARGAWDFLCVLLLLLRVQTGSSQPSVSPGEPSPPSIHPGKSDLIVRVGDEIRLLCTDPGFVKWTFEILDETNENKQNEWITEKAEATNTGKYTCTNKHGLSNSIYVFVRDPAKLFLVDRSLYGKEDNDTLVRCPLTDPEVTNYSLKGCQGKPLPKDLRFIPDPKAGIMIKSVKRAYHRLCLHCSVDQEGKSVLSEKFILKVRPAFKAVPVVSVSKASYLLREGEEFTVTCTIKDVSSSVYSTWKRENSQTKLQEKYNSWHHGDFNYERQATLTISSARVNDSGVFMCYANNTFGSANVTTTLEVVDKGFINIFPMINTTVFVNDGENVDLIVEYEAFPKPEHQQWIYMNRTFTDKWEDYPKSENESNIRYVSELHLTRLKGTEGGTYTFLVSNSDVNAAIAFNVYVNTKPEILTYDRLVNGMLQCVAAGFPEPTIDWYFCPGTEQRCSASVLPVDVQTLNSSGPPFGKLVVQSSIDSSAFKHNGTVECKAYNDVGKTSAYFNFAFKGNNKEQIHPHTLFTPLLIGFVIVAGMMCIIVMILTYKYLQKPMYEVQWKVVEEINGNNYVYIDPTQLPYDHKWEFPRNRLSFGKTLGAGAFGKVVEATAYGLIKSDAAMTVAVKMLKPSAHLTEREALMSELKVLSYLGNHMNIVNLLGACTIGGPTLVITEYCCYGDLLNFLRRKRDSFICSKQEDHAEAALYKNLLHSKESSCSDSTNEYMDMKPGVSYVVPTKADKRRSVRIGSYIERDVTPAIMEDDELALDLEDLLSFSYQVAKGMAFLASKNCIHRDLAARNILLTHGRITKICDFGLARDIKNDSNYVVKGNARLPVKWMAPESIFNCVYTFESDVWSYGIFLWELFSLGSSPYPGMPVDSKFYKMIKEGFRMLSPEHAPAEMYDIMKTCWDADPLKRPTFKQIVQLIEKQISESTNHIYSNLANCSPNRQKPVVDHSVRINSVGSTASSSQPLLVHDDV
Mitogen-activated protein kinase 3, sequence (P27361 whole entry): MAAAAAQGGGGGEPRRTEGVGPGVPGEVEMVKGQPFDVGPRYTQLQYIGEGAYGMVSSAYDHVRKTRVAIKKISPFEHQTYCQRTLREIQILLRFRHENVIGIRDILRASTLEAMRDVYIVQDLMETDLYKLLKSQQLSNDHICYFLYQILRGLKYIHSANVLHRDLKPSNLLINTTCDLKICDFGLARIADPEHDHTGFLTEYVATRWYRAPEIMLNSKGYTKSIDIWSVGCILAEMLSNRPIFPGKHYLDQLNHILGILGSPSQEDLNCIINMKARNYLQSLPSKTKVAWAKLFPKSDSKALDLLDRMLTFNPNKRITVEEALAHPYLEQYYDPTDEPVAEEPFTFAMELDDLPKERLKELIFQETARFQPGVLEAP

With N#Cc1c(Oc2ccc(F)c(NC(=O)Cc3cccc(C(F)(F)F)c3)c2)ccc2nc(NC(=O)C3CC3)sc12 the clearance [1] was 11.7 mL/min/kg, the IC50 [2] was 49 nM and the GI50 [3] was 200 nM. It also gave an IC50 [4] of 600 nM, an IC50 [5] of over 10000 nM and a Vd [6] of 1.87 L/kg. For the same compound, the MRT [7] was 4.69 h, the AUC(0-t) at 24 h [8] was 15500 ng·h/mL and the IC50 [9] was 8.1 nM. For the same compound, the inhibition ([9]; TDE = time-dependent effect) was “tde”, the Activity (Rattus norvegicus [10]) was 14 g and the IC50 [11] was over 10000 nM. For the same compound, the Activity (Rattus norvegicus [12]) was 9.3 g, the Activity (Rattus norvegicus [13]) was 11.2 g and the IC50 [14] was 1.4 nM. The IC50 (Insulin receptor) was over 10000 nM, the IC50 [15] was 120 nM and the AUC(0-t) at 24 h [16] was 32500 ng·h/mL. It also gave an Activity (Rattus norvegicus [17]) of 9.8 g, an IC50 [18] of over 10000 nM and an IC50 [19] of 790 nM. The AUC(0-t) at 24 h [20] was 1430 ng·h/mL, the IC50 [21] was 3.3 nM and the IC50 [22] was 500 nM. For the same compound, the MRT [23] was 2.23 h, the IC50 [24] was over 10000 nM and the Kd [25] was 1.6 nM. It also gave an IC50 [26] of over 10000 nM, a Ratio IC50 (Homo sapiens) of 67 and an IC50 (Aurora kinase B) of 66 nM. It also gave a Kd [27] of 0.52 nM, an AUC (Mus musculus) of 2480 ng·h/mL and an IC50 [28] of 280 nM. The IC50 [29] was 1400 nM, the MRT [30] was 6.27 h and the T1/2 [31] was 2.15 h. For the same compound, the IC50 [32] was 15 nM, the solubility [33] was under 0.02 µg/mL and the Vd [34] was 1.57 L/kg. It also gave an IC50 [35] of 8.3 nM.
